Measurements reported in patent publication US20160257957A1, “METHODS AND COMPOSITIONS FOR TREATMENT OF ANGELMAN SYNDROME AND AUTISM SPECTRUM DISORDERS” (PRESIDENT AND FELLOWS OF HARVARD COLLEGE, priority 2010, published 2016).
Where a SMILES comes first, the peptide text is derived from it. The star is where a group is joined. Cbz = O=C(OCc1ccccc1)*

Assays:
[1] = tested on: Arc; conditions: literature; cited from earlier work
[2] = tested on: Ube3A-mediated degradation of Arc; experiment: Ube3A-mediated degradation of Arc in transfected HEK293T cells (Western blot); assay type: cell-based; conditions: HEK293T cells transfected with Arc and Ube3A; MG132 10 μM
Description: (FIG. 9A) Western blot analysis of protein lysates made from brains of wild type and Ube3A knockout mice two hours following kainate acid injection. Immunoprecipitations were performed with an anti-Ube3A antibody and blotted with an anti-Arc antibody to reveal co-immunoprecipitated Arc. Images presented are representative of experiments performed on four independent sets of wildtype and Ube3A knockout mice. (FIG. 9B) Protein lysates were prepared from HEK293T cells transfected with Myc-Arc and HA-tagged ubiquitin and the indicated constructs and then treated with either vehicle control or the proteasome inhibitor MG132 ([…]). Arc was then immunoprecipitated using the anti-Myc antibody 9E10, and Western blot analysis was performed using an anti-Arc antibody to reveal both non-ubiquitinated and ubiquitinated forms of Arc. (FIG. 9C) Mass spectrometric peaks reveal that Ube3A catalyzes the ubiquitination of Arc on lysine 269. […] SEQ ID NO:5 is KGGEFLQYSEGTLSR(SEQ ID NO: 5) shown. Note the presence of two glycine residues covalently linked to the first lysine of this peptide which is indicative of ubiquitin being attached to that specific residue. […] Additional data not pictured here reveal the presence of ubiquitinated lysine 268 as well. […] SEQ ID NO: 6 is LIFAGKGGQLEDGR (SEQ ID NO: 6) shown in upper panel of FIG. 9D. […]

[3] = biological target: T1, mGluR5 (Mus musculus, UniProt Q3UVX5); conditions: mouse model of FXS, injection; cited from earlier work
T1 construct: host or cells: mouse model of Fragile X syndrome (in vivo)
T1 sequence (Q3UVX5 19-1203): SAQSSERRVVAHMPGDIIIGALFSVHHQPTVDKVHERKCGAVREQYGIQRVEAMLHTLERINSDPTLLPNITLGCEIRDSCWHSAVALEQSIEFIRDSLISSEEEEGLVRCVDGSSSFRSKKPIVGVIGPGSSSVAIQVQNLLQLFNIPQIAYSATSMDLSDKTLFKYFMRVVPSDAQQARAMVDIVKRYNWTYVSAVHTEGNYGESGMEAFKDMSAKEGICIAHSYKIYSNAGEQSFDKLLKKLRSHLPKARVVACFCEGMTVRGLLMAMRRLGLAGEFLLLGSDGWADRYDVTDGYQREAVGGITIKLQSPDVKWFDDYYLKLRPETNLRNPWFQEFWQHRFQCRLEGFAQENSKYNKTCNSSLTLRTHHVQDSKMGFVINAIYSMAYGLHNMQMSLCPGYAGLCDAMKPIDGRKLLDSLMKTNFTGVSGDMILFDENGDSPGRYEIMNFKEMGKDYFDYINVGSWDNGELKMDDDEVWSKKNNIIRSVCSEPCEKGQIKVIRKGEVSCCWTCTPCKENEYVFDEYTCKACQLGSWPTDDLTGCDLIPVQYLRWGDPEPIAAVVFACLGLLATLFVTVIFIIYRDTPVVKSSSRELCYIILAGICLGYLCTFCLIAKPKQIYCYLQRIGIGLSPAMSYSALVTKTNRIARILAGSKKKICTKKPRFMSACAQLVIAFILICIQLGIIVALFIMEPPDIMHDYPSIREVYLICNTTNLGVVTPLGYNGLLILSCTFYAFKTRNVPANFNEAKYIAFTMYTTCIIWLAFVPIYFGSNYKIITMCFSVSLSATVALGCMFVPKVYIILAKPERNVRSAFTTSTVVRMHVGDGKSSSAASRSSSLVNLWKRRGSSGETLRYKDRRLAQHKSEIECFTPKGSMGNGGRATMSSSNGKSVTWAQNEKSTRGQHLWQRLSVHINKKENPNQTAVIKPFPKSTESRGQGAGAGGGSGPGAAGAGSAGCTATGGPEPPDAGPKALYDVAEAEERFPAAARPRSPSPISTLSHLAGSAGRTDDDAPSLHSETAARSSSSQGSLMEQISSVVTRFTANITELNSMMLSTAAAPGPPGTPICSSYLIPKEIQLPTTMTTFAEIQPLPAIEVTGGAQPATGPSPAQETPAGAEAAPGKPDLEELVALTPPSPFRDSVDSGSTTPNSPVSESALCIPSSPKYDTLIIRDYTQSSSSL

[4] = tested on: muscarinic acetylcholine receptors (mAChR); conditions: literature; cited from earlier work
[5] = tested on: Ube3A; experiment: Kainate-induced seizures: Ube3A mRNA and protein in mouse hippocampus; assay type: in vivo, mice; conditions: kainate-induced seizures vs control
Text: FIGS. 8A-8G show regulation of Ube3A mRNA and protein by neuronal activity. (FIG. 8A) Real-time PCR analysis of Ube3A mRNA extracted from hippocampal neurons at E18+10 DIV treated for six hours with the indicated agent. Data are means+/−SEM from three independent experiments. * indicates statistical significance in pairwise comparison to control: P<0.01 T-test. (FIG. 8B) Quantitative Western blot analysis of Ube3A protein. Protein lysates were collected from hippocampal neurons at E18+8 DIV following treatment with the indicated agent for seven hours. This experiment was performed three times independently and the data were normalized to the control and are presented as means+/−SEM. * indicates P<0.01, # indicates P<0.05 in analysis of statistical significance in pairwise comparison to control by T-test. (FIG. 8C) Quantitative Western blot analysis of Ube3A protein. […] (FIG. 8E) Quantitative Western blot analysis of Ube3A protein from mice 2.5 hours after injection with saline (ctl) or kainic acid (seized) to induce seizures. […] (FIG. 8F) Quantitative Western blot analysis of Ube3A protein from mice housed in standard laboratory cages (control) or placed in cages with novel objects (enriched) for 2.5 hours. […]
Quantitative Real-Time PCR was carried out following standard procedures. […]

## C[C@@H](CO)CCC[C@@H](C)[C@H]1CC[C@H]2[C@@H]3CC=C4C[C@@H](O)CC[C@]4(C)[C@H]3CC[C@]12C [27-hydroxycholesterol]
[1]
  ARC expression: specifically decreased

## O=S(=O)(NCCNC/C=C/c1ccc(Br)cc1)c1cccc2cnccc12 [H89]
[1]
  ARC expression: induction of ARC expression

## CC(C)C[C@@H](C=O)NC(=O)[C@H](CC(C)C)NC(=O)[C@H](CC(C)C)NC(=O)OCc1ccccc1 [MG132] (Cbz-Leu-Leu-Leu-aldehyde)
[2]
  Ube3A-mediated degradation of Arc: blocked Ube3A-mediated degradation of Arc

## Cc1cccc(C#Cc2ccccc2)n1 [MPEP, 2-methyl-6-(phenylethynyl)-pyridine]
[3]
  surface expression of AMPARs: restored surface expression of AMPARs
  symptoms associated with FXS: prevented the symptoms associated with FXS

## CN1[C@@H]2CC[C@H]1C[C@@H](OC(=O)C(CO)c1ccccc1)C2 (stereo partly drawn) [atropine]
[4]
  mAChR-induced expression of ARC: can be inhibited

## C=C(C)[C@H]1CN[C@H](C(=O)O)[C@H]1CC(=O)O [kainate, kainic acid]
[5]; mouse hippocampus
  Ube3A mRNA level: increased
[5]; mouse
  Ube3A protein level: increased

## insulin: insulin
[1]
  ARC expression: increased
